Laboratory results taken from paper PMC8662641, “Site-Specific Labeling of Endogenous Proteins Using CoLDR Chemistry” (Journal of the American Chemical Society, 2021).

Tests used:
BTK = BTK (Homo sapiens, UniProt Q06187); set-up: BTK kinase domain was expressed and purified as previously reported; made in house; method as in Reddi et al., J. Am. Chem. Soc. 2021, 143 (13), 4979–4992; conditions: ref Reddi et al., J. Am. Chem. Soc. 2021, 143 (13), 4979–4992; cited from earlier work
BTK-1h = target: T1, BTK-1h (Homo sapiens, UniProt Q06187); experiment: High-throughput screening with 1h-labeled BTK; format: binding
T1 construct: The BTK kinase domain was diluted to 2 μM in the buffer, and 2 μM 1h was added; made in house
T1 sequence (Q06187 402-655): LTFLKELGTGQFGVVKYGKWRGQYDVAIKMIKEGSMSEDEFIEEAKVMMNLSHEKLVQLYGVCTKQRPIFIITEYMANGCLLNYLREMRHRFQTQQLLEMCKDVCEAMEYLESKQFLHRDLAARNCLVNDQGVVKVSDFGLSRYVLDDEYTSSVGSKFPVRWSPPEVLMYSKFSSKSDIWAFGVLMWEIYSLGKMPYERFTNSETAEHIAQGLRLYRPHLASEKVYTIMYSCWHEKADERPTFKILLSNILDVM
Protocol: The collection was composed of BTK binding compounds obtained in our previous luminescence screen[37] (Data set S2). […] The resulting BTK-1h (50 μL) was added to the inhibitors.

[1] = Dataset S2A, 200 μM compound, BTK-1h, 32 °C, 10 min
[2] = Dataset S2B, 200 μM inhibitor added to BTK-1h (2 μm)

Sequence of BTK (Q06187 402-655 limits assumed): as the sequence (Q06187 402-655) above

FI (650)/FI (620) (BTK-1h; [1]) | FI (BTK-1h)/FI (BTK-1h+Inhibitor) at 620 nm (BTK-1h; [1]) | FI (BTK-1h)/FI (BTK-1h+Inhibitor) at 620 nm (BTK-1h; [2]) | Compound | BTK Inhibition reported in luminescence assay* (BTK)
1.1367 | 1.0338 |  | Cc1c(C(=O)Nc2ccc(Oc3ccnc4[nH]cc(-c5ccccc5)c34)c(F)c2)c(=O)n(-c2ccc(F)cc2)n1C [PCM-0215493-001] | 95.9
1.043 | 1.041 |  | C=CC(=O)Nc1cccc(C)c1Nc1ncc2cc(-c3c(Cl)c(OC)cc(OC)c3Cl)ccc2n1 [PCM-0215508-001] | 100.4
1.221 | 1.15 |  | CN1CCN(Cc2ccc(Nc3ncc(Cl)c(Nc4ccccc4S(=O)(=O)N(C)C)n3)cc2)CC1 [PCM-0215510-001] | 67.2
1.013 | 1.019 |  | CC(=O)O/N=C1/C(c2c(O)[nH]c3cc(Br)ccc23)=Nc2ccccc21 [PCM-0215536-001] | 60.7
2.057 | 1.467 |  | Cc1noc(C)c1-c1ccc(-c2cc(C(N)=O)c(NC(N)=O)s2)c(O[C@H]2CCNC2)c1 [PCM-0215541-001, AZD3264] | 74.1
1.093 | 1.086 |  | NC(=O)c1cnc2[nH]ccc2c1NC1[C@@H]2CC3C[C@H]1CC(O)(C3)C2 (some centres unmarked) [PCM-0215550-001] | 94.5
0.9755 | 1.038 |  | CN1CCN(c2ccc(C(=O)Nc3n[nH]c4ccc(Cc5cc(F)cc(F)c5)cc34)c(NC3CCOCC3)c2)CC1 [PCM-0215551-001] | 102.8
1.019 | 1.0396 |  | COc1cccc(-n2c(=O)[nH]c3cc(Cl)n(-c4ccc(-c5cccc(OC)c5O)cc4)c3c2=O)c1 [PCM-0215555-001] | 99.3
1.072 | 1.041 |  | C=CC(=O)Nc1ccc(CN2C(=O)N(c3cc(OC)cc(OC)c3)Cc3cnc(Nc4ccc(N5CCN(C)CC5)cc4)nc32)cc1 [PCM-0215559-001] | 88.3
1.1215 | 1.062 |  | Cc1c[nH]c2nc(Nc3ccc(N4CCN(C)CC4)c(F)c3)nc(-c3cccc(CC#N)c3)c12 [PCM-0215633-001] | 92.4
1.491 | 1.033 |  | CC(=O)Nc1nc(-c2cccc(NS(=O)(=O)c3cccc4c(N(C)C)cccc34)c2)cs1 [PCM-0215679-001] | 97.3
1.281 | 1.027 |  | O=S(=O)([O-])c1ccc2cc(N=Nc3cc(S(=O)(=O)[O-])c4cccnc4c3O)ccc2c1.[Na+].[Na+] [PCM-0215685-001] | 54.1
0.9958 | 1.02 |  | O=C([O-])CCN1C(=O)/C(=C/c2ccc(-c3ccc([N+](=O)[O-])cc3)o2)SC1=S.[K+] [PCM-0215696-001] | 59.5
7.1 | 1.02 | 7.1 | O=[N+]([O-])c1ccc(Sc2cccc[n+]2[O-])c2nonc12 [PCM-0215705-001, NSC228155] | 73.4
1.794 | 1.194 |  | CN1c2ccccc2C(=O)Nc2cnc(Nc3ccc(N4CCC(O)CC4)cc3)nc21 [PCM-0215745-001] | 93.8
0.9815 | 1.0289 |  | COc1ccc(-c2nc(-c3cc(C(F)(F)F)cc(C(F)(F)F)c3)n(Cc3ccc(C(N)=O)cc3)c2-c2ccc(OC)cc2)cc1 [PCM-0215748-001] | 57.1
0.9809 | 1.022 |  | COc1ccc(CC(=O)Nc2nc3c(s2)CCc2ccccc2-3)cc1OC [PCM-0215753-001] | 55.9
1.102 | 1.063 |  | Cc1cc(O)c(-c2ccc([C@@H](C)CN)cc2)c2c1[nH]c(=O)c1sccc12 [PCM-0215772-001] | 70.3
1.123 | 1.039 |  | CC(C)(C)c1cc(NC(=O)Nc2ccc(Oc3ccnc4[nH]c(=O)cnc34)cc2F)n(-c2ccccc2)n1 [PCM-0215780-001] | 61.4

FI (650)/FI (620) (BTK-1h; [1]) | FI (BTK-1h)/FI (BTK-1h+Inhibitor) at 620 nm (BTK-1h; [1]) | FI (BTK-1h)/FI (BTK-1h+Inhibitor) at 620 nm (BTK-1h; [2]) | Compound | BTK Inhibition reported in luminescence assay* (BTK)
1.046 | 1.04 |  | C=CC(=O)N1CC[C@@H](Oc2nc(Nc3ccc(N4CCC(N5CCN(C)CC5)CC4)cc3)c(C(N)=O)nc2CC)C1 [PCM-0215788-001] | 91
1.701 | 1.062 |  | Cn1cc(C2=C(c3cccc(N)c3)C(=O)NC2=O)c2ccccc21 [PCM-0215795-001] | 80.3
1.285 | 1.0276 |  | OC1CCC(Oc2cccc3cnc(Nc4ccc5nc[nH]c5c4)nc23)CC1 (centres unmarked) [PCM-0215798-001] | 66.2
1.045 | 1.069 |  | Cc1cc(C(=O)Nc2nc3cccc(Cl)c3n2[C@@H]2CCCCN(C(=O)/C=C/CN(C)C)C2)ccn1 [PCM-0215804-001] | 73.8
1.017 | 1.01 |  | O=[N+]([O-])c1ccc(Nc2ccccc2-c2ccccc2)c2nonc12 [PCM-0215806-001] | 74.1
0.6133 | 1.029 |  | COCCCc1sc(-c2ccccc2)nc1C(=O)Nc1ccccc1-c1nc2cc(CN3CCCC3)cnc2s1.Cl [PCM-0215812-001] | 57.9
1.58 | 1.142 |  | CC/C(=C(/c1ccc(/C=C/C(=O)O)cc1)c1ccc2[nH]ncc2c1)c1ccc(F)cc1Cl [PCM-0216010-001] | 81.1
1.147 | 1.02 |  | Cc1nc(Nc2ccc(F)cc2)nc(N2CCc3ccccc3C2C)c1C.Cl (centres unmarked) [PCM-0216015-001] | 79.3
0.9612 | 1.053 |  | Cc1cnc(C(=O)N[C@H]2CCCCC/C=C\[C@@H]3C[C@@]3(C(=O)NS(=O)(=O)C3CC3)NC(=O)[C@@H]3C[C@@H](Oc4nc5ccccc5c5ccccc45)CN3C2=O)cn1 [PCM-0216057-001] | 53.3
1.059 | 1.045 |  | COS(=O)(=O)[O-].C[n+]1c2ccccc2nc2ccccc21 [PCM-0216061-001] | 64.9
0.9511 | 1.031 |  | COc1c(-c2ccc3cc(NS(C)(=O)=O)ccc3c2)cc(-n2ccc(=O)[nH]c2=O)cc1C(C)(C)C [PCM-0216081-001] | 73.4
1.311 | 1.005 |  | Nc1ccc(O)cc1 [PCM-0216110-001] | 82.6
1.3565 | 1.092 |  | Cn1cc(-c2cc(Oc3cc(F)c(NC(=O)C4(C(=O)Nc5ccccc5)CC4)cc3F)ccn2)cn1 [PCM-0216116-001] | 88.8
1.0081 | 1.015 |  | CC(C)=CCc1cc2c(cc1O)O[C@H](c1ccc(O)cc1)CC2=O [PCM-0216180-001] | 54.1
3.101 | 1.308 |  | CCCCCC/C=C\CCCCCCCc1cccc(O)c1C(=O)O [PCM-0216327-001] | 84.2
1.074 | 1.011 |  | CC(C)=CCC/C(C)=C/Cc1c(O)c(CC=C(C)C)c2c(c1O)C(=O)C1=C[C@@H]3C[C@H]4C(C)(C)O[C@@](C/C=C(/C)C(=O)O)(C3=O)[C@@]14O2 [PCM-0216347-001] | 100.4
1.5271 | 1.051 |  | COc1cc(-c2oc3cc(O)cc(O)c3c(=O)c2O)ccc1O [PCM-0216402-001] | 73.4
4.394 | 1.081 | 4.394 | O=c1cc(-c2ccc(O)cc2)oc2cc(O)c(O)c(O)c12 [PCM-0216408-001, Scutellarein] | 70.3

Compound | FI (650)/FI (620) (BTK-1h; [1]) | FI (BTK-1h)/FI (BTK-1h+Inhibitor) at 620 nm (BTK-1h; [1]) | FI (BTK-1h)/FI (BTK-1h+Inhibitor) at 620 nm (BTK-1h; [2]) | BTK Inhibition reported in luminescence assay* (BTK)
Cl[Te]1(Cl)(Cl)OCCO1.N [PCM-0215721-001] | 1.1548 | 1.038 |  | 98.6
O=C(c1ccccc1O)c1[nH]c(Cl)c(Cl)c1-n1c(C(=O)c2ccccc2O)cc(Cl)c1Cl [PCM-0215850-001] | 1.151 | 1.016 |  | 117.4
